Patent US8044211B2 (Chroma Therapeutics Ltd., priority 2006, dated 2011)
Counter-ions that a name gives are not always drawn.

Legend:
p38 MAP Kinase a = target: T1, p38 MAP Kinase a (Homo sapiens, UniProt Q16539); test: p38 MAP Kinase activity, radiometric filter-binding assay (Upstate); format: biochemical; conditions: IC50 range; ATP at or close to Km; read-out: Inhibitor activity versus p38 MAPKa
T1 construct: purchased Upstate (Dundee UK)
Method: The ability of compounds to inhibit p38 MAP a Kinase activity was measured in an assay performed by Upstate (Dundee UK). In a final reaction volume of 25 μL, p38 MAP Kinase a (5-10 mU) is incubated with 25 mM Tris pH 7.5, 0.002 mMEGTA, 0.33 mg/mL myelin basic protein, 10 mM MgAcetate and [g-33P-ATP] (specific activity approx. 500 cpm/pmol, concentration as required). The reaction is initiated by the addition of the MgATP mix. After incubation for 40 minutes at room temperature, the reaction is stopped by the addition of 5 μL of a 3% phosphoric acid solution. 10 μL of the reaction is then spotted onto a P30 filtermat and washed three times for 5 minutes in 75 mM phosphoric acid and once in methanol prior to drying and scintillation counting.
Duplicate data points are generated from a ⅓ log dilution series of a stock solution in DMSO. Nine dilutions steps are made from a top concentration of 10 μM, and a ‘no compound’ blank is included. The standard radiometric filter-binding assay is performed at an ATP concentration at, or close to, the Km. Data from scintillation counts are collected and subjected to free-fit analysis by Prism software. From the curve generated, the concentration giving 50% inhibition is determined and reported.

THP-1 TNFα release = test: LPS-stimulation of THP-1 cells, TNF-α by ELISA; format: cell-based; conditions: Homo sapiens, THP-1; IC50 range; LPS 1 μg/ml, 6 hrs; read-out: Inhibitor activity versus THP-1 TNFα release
Method: THP-1 cells were plated in 100 μl at a density of 4×10^4 cells/well in V-bottomed 96 well tissue culture treated plates and incubated at 37° C. in 5% CO2 for 16 hrs. 2 hrs after the addition of the inhibitor in […], of tissue culture media, the cells were stimulated with LPS (E. coli strain 005:B5, Sigma) at a final concentration of 1 μg/ml and incubated at 37° C. in 5% CO2 for 6 hrs. TNF-α levels were measured from cell-free supernatants by sandwich ELISA (R&D Systems #QTA00B).

T1 sequence (Q16539 whole entry): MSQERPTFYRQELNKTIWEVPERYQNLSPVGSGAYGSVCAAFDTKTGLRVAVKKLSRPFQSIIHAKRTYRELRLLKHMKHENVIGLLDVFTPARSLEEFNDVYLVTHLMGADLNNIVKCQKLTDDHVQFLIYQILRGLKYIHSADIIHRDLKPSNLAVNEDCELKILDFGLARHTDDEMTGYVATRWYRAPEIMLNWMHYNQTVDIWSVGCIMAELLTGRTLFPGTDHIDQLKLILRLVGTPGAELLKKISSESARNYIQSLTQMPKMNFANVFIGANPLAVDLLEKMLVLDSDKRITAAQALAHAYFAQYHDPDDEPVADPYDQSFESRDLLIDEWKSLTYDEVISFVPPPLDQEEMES

| IC50 (p38 MAP Kinase a) [nM] | IC50 (THP-1 TNFα release) [nM] | SMILES |
| --- | --- | --- |
| < 100 | < 100 | CC(C)C[C@H](NCCCCCOc1cc(F)c(-n2c(N)c(C(=O)c3ccc(F)cc3F)ccc2=O)c(F)c1)C(=O)OC(C)(C)C [Example 54, tert-Butyl N-(5-{4-[6-amino-5-(2,4-difluorobenzoyl)-2-oxopyridin-1(2H)-yl]-3,5-difluorophenoxy}pentyl)-L-leucinate] |
| < 100 | < 100 | CCOC(=O)[C@H](CC(C)C)NCCCOc1cc(F)c(-n2c(N)c(C(=O)c3ccc(F)cc3)ccc2=O)c(F)c1 [Example 16, Ethyl N-(3-{4-[6-amino-5-(4-fluorobenzoyl)-2-oxopyridin-1(2H)-yl]-3,5-difluorophenoxy}propyl)-L-leucinate] |
| < 100 | < 100 | CC(C)C[C@H](NC1CCC(Oc2cc(F)c(-n3c(N)c(C(=O)c4ccc(F)cc4)ccc3=O)c(F)c2)CC1)C(=O)OC1CCCC1 (stereo partly drawn) [Example 33, Cyclopentyl(S)-2-(4-{4-[6-Amino-5-(4-fluorobenzoyl)-2-oxo-2H-pyridin-1-yl]-3,5-difluorophenoxy}cyclohexylamino)-4-methylpentanoate] |
| 100 to 1000 | > 1000 | Nc1c(C(=O)c2ccc(F)cc2)ccc(=O)n1-c1ccc(CN[C@H](C(=O)OC2CCCC2)c2ccccc2)cc1 [Example 1, Cyclopentyl(S)-{4-[6-Amino-5-(4-fluorobenzoyl)-2-oxo-2H-pyridin-1-yl]benzylamino}phenylacetate] |
| < 100 | > 1000 | Nc1c(C(=O)c2ccc(F)cc2F)ccc(=O)n1-c1ccc(CN[C@H](C(=O)OC2CCCC2)c2ccccc2)cc1 [Example 7, Cyclopentyl(S)-{4-[6-Amino-5-(2,4-difluorobenzoyl)-2-oxo-2H-pyridin-1-yl]benzylamino}phenylacetate] |
| 100 to 1000 | < 100 | CC(C)C[C@H](NCCc1ccc(-n2c(N)c(C(=O)c3ccc(F)cc3F)ccc2=O)cc1)C(=O)OC(C)(C)C [Example 60, tert-Butyl N-[2-(4-{6-amino-5-[(2,4-difluorophenyl)carbonyl]-2-oxopyridin-1(2H)-yl}phenyl)ethyl]-L-leucinate] |
| < 100 | < 100 | Nc1c(C(=O)c2ccc(F)cc2)ccc(=O)n1-c1c(F)cc(OCCCN[C@@H](Cc2ccccc2)C(=O)OC2CCCC2)cc1F [Example 14] |
| < 100 | 100 to 1000 | CC(C)(C)OC(=O)[C@H](Cc1ccccc1)NCCCOc1cc(F)c(-n2c(N)c(C(=O)c3ccc(F)cc3F)ccc2=O)c(F)c1 [Example 37, tert-Butyl(S)-2-(3-{4-[6-Amino-5-(2,4-difluorobenzoyl)-2-oxo-2H-pyridin-1-yl]-3,5-difluorophenoxy}-propylamino)-3-phenyl propionate] |
| 100 to 1000 | > 1000 | CC(C)C[C@H](NC(=O)COc1ccc(-n2c(N)c(C(=O)c3ccc(F)cc3)ccc2=O)cc1)C(=O)OC1CCCC1 [Example 56, Cyclopentyl N-({4-[6-amino-5-(4-fluorobenzoyl)-2-oxopyridin-1(2H)-yl]phenoxy}acetyl)-L-leucinate] |
| 100 to 1000 | > 1000 | Cc1cc(C(=O)c2ccc(=O)n(-c3ccc(CN[C@@H](CC(C)C)C(=O)OC4CCCC4)cc3)c2N)ccc1F [Example 6, Cyclopentyl(S)-2-{4-[6-Amino-5-(3-Methyl-4-fluorobenzoyl)-2-oxo-2H-pyridin-1-yl]benzylamino}-4-methylpentanoate] |
| 100 to 1000 | < 100 | CC(C)C[C@H](NCCc1ccc(-n2c(N)c(C(=O)c3ccc(Cl)cc3)ccc2=O)cc1)C(=O)OC1CCCC1 [Example 65, Cyclopentyl N-[2-(4-{6-amino-5-[(4-chlorophenyl)carbonyl]-2-oxopyridin-1(2H)-yl}phenyl)ethyl]-L-leucinate] |
| < 100 | 100 to 1000 | Nc1c(C(=O)c2ccc(F)cc2F)ccc(=O)n1-c1ccc(CN[C@@H](Cc2ccccc2)C(=O)OC2CCCC2)cc1 [Example 8, Cyclopentyl(S)-2-{4-[6-Amino-5-(2,4-difluorobenzoyl)-2-oxo-2H-pyridin-1-yl]benzylamino}-3-phenylpropionate] |
| < 100 | 100 to 1000 | Nc1c(C(=O)c2ccc(F)cc2)ccc(=O)n1-c1ccc(OCCCN[C@@H](Cc2ccccc2)C(=O)OC2CCCC2)cc1 [Example 24, Cyclopentyl(S)-2-(3-{4-[6-Amino-5-(4-fluorobenzoyl)-2-oxo-2H-pyridin-1-yl]phenoxy}propylamino)-3-phenylpropionate] |
| < 100 | < 100 | Nc1c(C(=O)c2ccc(F)cc2F)ccc(=O)n1-c1ccc(OCCCN[C@H](C(=O)OC2CCCC2)c2ccccc2)cc1 [Example 28, Cyclopentyl(S)-(3-{4-[6-Amino-5-(2,4-difluorobenzoyl)-2-oxo-2H-pyridin-1-yl]1-phenoxy}propylamino)phenyl acetate] |
| < 100 | < 100 | Cc1cc(C(=O)c2ccc(=O)n(-c3c(F)cc(OCCCN[C@H](C(=O)OC4CCCC4)c4ccccc4)cc3F)c2N)ccc1F [Example 17, Cyclopentyl(S)-(3-{4-[6-Amino-5-(4-fluoro-3-methylbenzoyl)-2-oxo-2H-pyridin-1-yl]-3,5-difluorophenoxy}propylamino) phenylacetate] |
| 100 to 1000 | < 100 | Nc1c(C(=O)c2ccc(F)cc2)ccc(=O)n1-c1ccc(CCN[C@H](C(=O)OC2CCCC2)c2ccccc2)cc1 [Example 61, Cyclopentyl(2S)-{[2-(4-{6-amino-5-[(4-fluorophenyl)carbonyl]-2-oxopyridin-1(2H)-yl}phenyl)ethyl]amino}(phenyl)ethanoate] |
| < 100 | < 100 | Nc1c(C(=O)c2ccc(F)cc2F)ccc(=O)n1-c1c(F)cc(OCCCN[C@H](C(=O)OC2CC3CCC2C3)c2ccccc2)cc1F (stereo partly drawn) [Example 43, Bicyclo[2.2.1]hept-2-yl(2S)-[(3-{4-[6-amino-5-(2,4-difluorobenzoyl)-2-oxopyridin-1(2H)-yl]-3,5-difluorophenoxy}propyl)amino](phenyl)acetate] |
| < 100 | < 100 | Nc1c(C(=O)c2ccc(F)cc2F)ccc(=O)n1-c1c(F)cc(OCCCN[C@H](C(=O)OC2Cc3ccccc3C2)c2ccccc2)cc1F [Example 40, 2,3-Dihydro-1H-inden-2-yl (2S)-[(3-{4-[6-amino-5-(2,4-difluorobenzoyl)-2-oxopyridin-1(2H)-yl]-3,5-difluorophenoxy}propyl)amino](phenyl)acetate] |
| < 100 | < 100 | Nc1c(C(=O)c2ccc(F)cc2)ccc(=O)n1-c1c(F)cc(OC2CCC(N[C@@H](Cc3ccccc3)C(=O)OC3CCCC3)CC2)cc1F (some centres unmarked) [Example 31, trifluoroacetate] |
| 100 to 1000 | > 1000 | Nc1c(C(=O)c2ccc(F)cc2)ccc(=O)n1-c1ccc(CN[C@@H](Cc2ccccc2)C(=O)OC2CCCC2)cc1 [Example 2, Cyclopentyl(S)-2-{4-[6-Amino-5-(4-fluorobenzoyl)-2-oxo-2H-pyridin-1-yl]benzylamino}-3-phenylpropionate] |
| 100 to 1000 | < 100 | Nc1c(C(=O)c2ccc(F)cc2F)ccc(=O)n1-c1c(F)cc(OCCCN[C@@H](C(=O)OC2CC3CCC2C3)c2ccccc2)cc1F (stereo partly drawn) [Example 44, Bicyclo[2.2.1]hept-2-yl (2R)-[(3-{4-[6-amino-5-(2,4-difluorobenzoyl)-2-oxopyridin-1(2H)-yl]-3,5-difluorophenoxy}propyl)amino](phenyl)acetate] |
| 100 to 1000 | > 1000 | Nc1c(C(=O)c2ccc(F)cc2)ccc(=O)n1C1CCC(N[C@@H](Cc2ccccc2)C(=O)OC2CCCC2)CC1 (single isomer, unassigned) [Example 34] |
| < 100 | 100 to 1000 | Cc1cc(C(=O)c2ccc(=O)n(-c3ccc(OCCCN[C@@H](Cc4ccccc4)C(=O)OC4CCCC4)cc3)c2N)ccc1F [Example 12, Cyclopentyl(S)-2-(3-{4-[6-Amino-5-(3-methyl-4-fluorobenzoyl)-2-oxo-2H-pyridin-1-yl]phenoxy}propylamino)-3-phenyl propionate] |
| 100 to 1000 | < 100 | CC(C)C[C@H](NCCCCCOc1cc(F)c(-n2c(N)c(C(=O)c3ccc(F)cc3)ccc2=O)c(F)c1)C(=O)OC1CCCC1 [Example 55, Cyclopentyl N-(5-{4-[6-amino-5-(4-fluorobenzoyl)-2-oxopyridin-1(2H)-yl]-3,5-difluorophenoxy}pentyl)-L-leucinate] |
| > 1000 | < 100 | Cc1ccc(C(=O)c2ccc(=O)n(-c3ccc(CCN[C@@H](CC(C)C)C(=O)OC4CCCC4)cc3)c2N)cc1 [Example 63, Cyclopentyl N-[2-(4-{6-amino-5-[(4-methylphenyl)carbonyl]-2-oxopyridin-1(2H)-yl}phenyl)ethyl]-L-leucinate] |
